Target: T1, G1 APOL1 (Homo sapiens, UniProt O14791, I384M/S342G)
T1 construct: expressed in transfected cells
T1 sequence (O14791 28-398 S342G/I384M): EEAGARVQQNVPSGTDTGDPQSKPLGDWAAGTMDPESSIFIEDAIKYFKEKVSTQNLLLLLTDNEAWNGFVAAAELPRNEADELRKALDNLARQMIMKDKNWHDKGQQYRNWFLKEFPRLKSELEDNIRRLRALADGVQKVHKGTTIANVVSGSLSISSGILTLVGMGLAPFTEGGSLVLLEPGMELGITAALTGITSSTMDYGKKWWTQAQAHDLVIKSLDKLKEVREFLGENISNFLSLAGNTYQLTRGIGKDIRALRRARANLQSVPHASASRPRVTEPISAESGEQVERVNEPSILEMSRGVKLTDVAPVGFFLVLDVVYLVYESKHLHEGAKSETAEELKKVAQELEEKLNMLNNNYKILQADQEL
Assay: Acute APOL1 Thallium Assay with inducible stable clones of HEK 293 cells
Type: cell-based
Conditions: HEK 293 T-Rex inducible stable clone expressing G1 APOL1; read-out: Thallium Assay (IC50)
Summary of the method: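 A tetracycline-inducible HEK293 T-Rex clone (G1 DC3.25) expressing G1 APOL1 was plated at 26,000 cells/well, with tetracycline added at plating to induce expression. Cells were loaded with an AM-ester thallium-sensitive dye and stimulated with Tl+. Pore activity was read as the FLIPR Tetra fluorescence increase from Tl+ influx.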

| SMILES | IC50 [nM] |
| --- | --- |
| O=S(=O)(NC[C@H]1C[C@H](c2c(-c3ccc(F)cc3)[nH]c3c(F)cc(F)cc32)C1)N[C@@H]1CCC[C@H]1O [Compound 348] | > 1000 |
| O=S(=O)(NC[C@H]1C[C@H](c2c(-c3ccc(F)cc3)[nH]c3c(F)cc(F)cc32)C1)N[C@@H]1CCC[C@@H]1O [Compound 357] | > 1000 |
| O=S(=O)(NCCc1c[nH]cn1)NC[C@H]1C[C@H](c2c(-c3ccc(F)cc3)[nH]c3c(F)cc(F)cc32)C1 [Compound 359] | > 1000 |
| O=S(=O)(NCCCn1ccnc1)NC[C@H]1C[C@H](c2c(-c3ccc(F)cc3)[nH]c3c(F)cc(F)cc32)C1 [Compound 366] | > 1000 |
| Cn1cnc(CNS(=O)(=O)NC[C@H]2C[C@H](c3c(-c4ccc(F)cc4)[nH]c4c(F)cc(F)cc43)C2)c1 [Compound 367] | > 1000 |
| O=C1CC(CNS(=O)(=O)NC[C@H]2C[C@H](c3c(-c4ccc(F)cc4)[nH]c4c(F)cc(F)cc43)C2)CN1 (some centres unmarked) [Compound 368] | 250 to 1000 |
| O=S(=O)(NCCc1cn[nH]c1)NC[C@H]1C[C@H](c2c(-c3ccc(F)cc3)[nH]c3c(F)cc(F)cc32)C1 [Compound 369] | 250 to 1000 |
| O=C1NCCN1C[C@H]1C[C@H](c2c(-c3ccc(F)cc3)[nH]c3c(F)cc(F)cc32)C1 [Compound 373, 1-(((1r,3r)-3-(5,7-difluoro-2-(4-fluorophenyl)-1H-indol-3-yl)cyclobutyl)methyl)imidazolidin-2-one] | < 250 |
| OC1CC(NCC2CC(c3c(-c4ccc(F)cc4)[nH]c4c(F)cc(F)cc34)C2)C1 (centres unmarked) [Compound 377] | 250 to 1000 |
| Fc1ccc(-c2[nH]c3c(F)cc(F)cc3c2C2CC(CNCC(F)F)C2)cc1 (centres unmarked) [Compound 379] | 250 to 1000 |
| Fc1ccc(-c2[nH]c3c(F)cc(F)cc3c2C2CC(CNC3COC3)C2)cc1 (centres unmarked) [Compound 380] | 250 to 1000 |
| CN1CCC(NCC2CC(c3c(-c4ccc(F)cc4)[nH]c4c(F)cc(F)cc34)C2)C1=O (centres unmarked) [Compound 381] | 250 to 1000 |
| O=C1CCC(NCC2CC(c3c(-c4ccc(F)cc4)[nH]c4c(F)cc(F)cc34)C2)C(=O)N1 (centres unmarked) [Compound 382] | 250 to 1000 |
| C[C@@H](O)CNCC1CC(c2c(-c3ccc(F)cc3)[nH]c3c(F)cc(F)cc23)C1 (some centres unmarked) [Compound 383] | 250 to 1000 |
| NC12CC(NCC3CC(c4c(-c5ccc(F)cc5)[nH]c5c(F)cc(F)cc45)C3)(C1)C2 (centres unmarked) [Compound 384] | 250 to 1000 |
| OCC(O)CNCC1CC(c2c(-c3ccc(F)cc3)[nH]c3c(F)cc(F)cc23)C1 (centres unmarked) [Compound 385] | 250 to 1000 |
| O=C1NCCC1NCC1CC(c2c(-c3ccc(F)cc3)[nH]c3c(F)cc(F)cc23)C1 (centres unmarked) [Compound 386] | 250 to 1000 |
| O[C@H]1C[C@H](NCC2CC(c3c(-c4ccc(F)cc4)[nH]c4c(F)cc(F)cc34)C2)C1 (some centres unmarked) [Compound 387] | 250 to 1000 |
| NCCNCC1CC(c2c(-c3ccc(F)cc3)[nH]c3c(F)cc(F)cc23)C1 (centres unmarked) [Compound 388] | 250 to 1000 |
| C[C@@H](CO)NCC1CC(c2c(-c3ccc(F)cc3)[nH]c3c(F)cc(F)cc23)C1 (some centres unmarked) [Compound 389] | > 1000 |

| SMILES | IC50 [nM] |
| --- | --- |
| OCC1(NCC2CC(c3c(-c4ccc(F)cc4)[nH]c4c(F)cc(F)cc34)C2)COC1 (centres unmarked) [Compound 390] | > 1000 |
| Fc1ccc(-c2[nH]c3c(F)cc(F)cc3c2C2CC(CN[C@@H]3CCOC3)C2)cc1 (some centres unmarked) [Compound 391] | > 1000 |
| C[C@H](O)[C@H](CO)NCC1CC(c2c(-c3ccc(F)cc3)[nH]c3c(F)cc(F)cc23)C1 (some centres unmarked) [Compound 392] | > 1000 |
| OCCCNCC1CC(c2c(-c3ccc(F)cc3)[nH]c3c(F)cc(F)cc23)C1 (centres unmarked) [Compound 393] | > 1000 |
| C[C@H](CO)NCC1CC(c2c(-c3ccc(F)cc3)[nH]c3c(F)cc(F)cc23)C1 (some centres unmarked) [Compound 394] | > 1000 |
| CC[C@@H](CO)NCC1CC(c2c(-c3ccc(F)cc3)[nH]c3c(F)cc(F)cc23)C1 (some centres unmarked) [Compound 395] | > 1000 |
| Fc1ccc(-c2[nH]c3c(F)cc(F)cc3c2C2CC(CNC3CCOC3)C2)cc1 (centres unmarked) [Compound 396] | > 1000 |
| OCC1(NCC2CC(c3c(-c4ccc(F)cc4)[nH]c4c(F)cc(F)cc34)C2)CC1 (centres unmarked) [Compound 397] | > 1000 |
| Fc1ccc(-c2[nH]c3c(F)cc(F)cc3c2C2CC(CN[C@H]3CCOC3)C2)cc1 (some centres unmarked) [Compound 398] | > 1000 |
| Cn1ccc(NCC2CC(c3c(-c4ccc(F)cc4)[nH]c4c(F)cc(F)cc34)C2)n1 (centres unmarked) [Compound 399] | > 1000 |
| O=C1NCC[C@@H]1NCC1CC(c2c(-c3ccc(F)cc3)[nH]c3c(F)cc(F)cc23)C1 (some centres unmarked) [Compound 400] | > 1000 |
| CC(C)(C)OC(=O)NCCNCC1CC(c2c(-c3ccc(F)cc3)[nH]c3c(F)cc(F)cc23)C1 (centres unmarked) [Compound 401] | > 1000 |
| CC(C)C(CO)NCC1CC(c2c(-c3ccc(F)cc3)[nH]c3c(F)cc(F)cc23)C1 (centres unmarked) [Compound 402] | > 1000 |
| NCC(O)CNCC1CC(c2c(-c3ccc(F)cc3)[nH]c3c(F)cc(F)cc23)C1 (centres unmarked) [Compound 403] | > 1000 |
| CC1(NCC2CC(c3c(-c4ccc(F)cc4)[nH]c4c(F)cc(F)cc34)C2)COC1 (centres unmarked) [Compound 404] | > 1000 |
| Fc1ccc(-c2[nH]c3c(F)cc(F)cc3c2C2CC(CNCC3COC3)C2)cc1 (centres unmarked) [Compound 405] | > 1000 |
| C[C@@H](O)[C@@H](CO)NCC1CC(c2c(-c3ccc(F)cc3)[nH]c3c(F)cc(F)cc23)C1 (some centres unmarked) [Compound 408] | > 1000 |
| NCCCNCC1CC(c2c(-c3ccc(F)cc3)[nH]c3c(F)cc(F)cc23)C1 (centres unmarked) [Compound 409] | > 1000 |
| O=C1CC(NCC2CC(c3c(-c4ccc(F)cc4)[nH]c4c(F)cc(F)cc34)C2)CN1 (centres unmarked) [Compound 410] | > 1000 |

The next lines start with the values.

| IC50 [nM] | SMILES |
| --- | --- |
| > 1000 | O=S(=O)(NC[C@H]1C[C@H](c2c(-c3ccc(F)cc3)[nH]c3c(F)cc(F)cc32)C1)N[C@@H](CO)C(F)F [Compound 347] |
| > 1000 | NC(=O)C1(NS(=O)(=O)NC[C@H]2C[C@H](c3c(-c4ccc(F)cc4)[nH]c4c(F)cc(F)cc43)C2)CC1 [Compound 349] |
| > 1000 | O=S(=O)(NC[C@H](O)CO)NC[C@H]1C[C@H](c2c(-c3ccc(F)cc3)[nH]c3c(F)cc(F)cc32)C1 [Compound 350] |
| > 1000 | C[C@@H](O)CNS(=O)(=O)NC[C@H]1C[C@H](c2c(-c3ccc(F)cc3)[nH]c3c(F)cc(F)cc32)C1 [Compound 351] |
| > 1000 | O=S(=O)(NC[C@@H](O)CO)NC[C@H]1C[C@H](c2c(-c3ccc(F)cc3)[nH]c3c(F)cc(F)cc32)C1 [Compound 352] |
| > 1000 | NC(=O)[C@H](CO)NS(=O)(=O)NC[C@H]1C[C@H](c2c(-c3ccc(F)cc3)[nH]c3c(F)cc(F)cc32)C1 [Compound 353] |
| > 1000 | CNS(=O)(=O)NC[C@H]1C[C@H](c2c(-c3ccc(F)cc3)[nH]c3c(F)cc(F)cc32)C1 [Compound 354] |
| 250 to 1000 | O=S(=O)(NC[C@H]1C[C@H](c2c(-c3ccc(F)cc3)[nH]c3c(F)cc(F)cc32)C1)NC1(CO)CCC1 [Compound 355] |
| 250 to 1000 | CC(O)CCNS(=O)(=O)NC[C@H]1C[C@H](c2c(-c3ccc(F)cc3)[nH]c3c(F)cc(F)cc32)C1 (some centres unmarked) [Compound 356] |
| > 1000 | O=S(=O)(NC[C@H]1C[C@H](c2c(-c3ccc(F)cc3)[nH]c3c(F)cc(F)cc32)C1)NC(CO)C(F)(F)F (some centres unmarked) [Compound 358] |
| > 1000 | C[C@H](O)[C@H](CO)NS(=O)(=O)NC[C@H]1C[C@H](c2c(-c3ccc(F)cc3)[nH]c3c(F)cc(F)cc32)C1 [Compound 360] |
| > 1000 | CN(CC(O)CO)S(=O)(=O)NC[C@H]1C[C@H](c2c(-c3ccc(F)cc3)[nH]c3c(F)cc(F)cc32)C1 (some centres unmarked) [Compound 361] |
| > 1000 | C[C@@H](O)[C@@H](CO)NS(=O)(=O)NC[C@H]1C[C@H](c2c(-c3ccc(F)cc3)[nH]c3c(F)cc(F)cc32)C1 [Compound 363] |
| > 1000 | CC(CO)(CO)NS(=O)(=O)NC[C@H]1C[C@H](c2c(-c3ccc(F)cc3)[nH]c3c(F)cc(F)cc32)C1 [Compound 365] |
| > 1000 | CN(C)S(=O)(=O)NC[C@H]1C[C@H](c2c(-c3ccc(F)cc3)[nH]c3c(F)cc(F)cc32)C1 [Compound 370, 3-[3-[(dimethylsulfamoylamino)methyl]cyclobutyl]-5,7-difluoro-2-(4-fluorophenyl)-1H-indole] |
| 250 to 1000 | CC(=O)NS(=O)(=O)NC[C@H]1C[C@H](c2c(-c3ccc(F)cc3)[nH]c3c(F)cc(F)cc32)C1 [Compound 371] |
| < 250 | NS(=O)(=O)NC[C@H]1C[C@H](c2c(-c3ccc(F)cc3)[nH]c3c(F)cc(F)cc32)C1 [Compound 372] |
| 250 to 1000 | OCC(CO)NCC1CC(c2c(-c3ccc(F)cc3)[nH]c3c(F)cc(F)cc23)C1 (centres unmarked) [Compound 376] |
| > 1000 | OCC(CO)(CO)NCC1CC(c2c(-c3ccc(F)cc3)[nH]c3c(F)cc(F)cc23)C1 (centres unmarked) [Compound 406] |
| > 1000 | CC(C)(CO)NCC1CC(c2c(-c3ccc(F)cc3)[nH]c3c(F)cc(F)cc23)C1 (centres unmarked) [Compound 407] |
| 250 to 1000 | CS(=O)(=O)NC[C@H]1C[C@H](c2c(-c3ccc(F)cc3)[nH]c3c(F)cc(F)cc32)C1 [Compound 412, N-(((1r,3r)-3-(5,7-difluoro-2-(4-fluorophenyl)-1H-indol-3-yl)cyclobutyl)methyl)methanesulfonamide] |
| 250 to 1000 | CCS(=O)(=O)NC[C@H]1C[C@H](c2c(-c3ccc(F)cc3)[nH]c3c(F)cc(F)cc32)C1 [Compound 413] |
| 250 to 1000 | N#CCS(=O)(=O)NC[C@H]1C[C@H](c2c(-c3ccc(F)cc3)[nH]c3c(F)cc(F)cc32)C1 [Compound 414] |
